# Source: the METLIN SMRT retention time set (Domingo-Almenara et al. 2019)
# Assay: gradient 5% acetonitrile 3 min, to 50% in 2 min, to 85% in 15 min, held 3 min, 100 µL/min
# Conditions: column: Zorbax Extend-C18 2.1 x 50 mm; eluents: water / acetonitrile, 0.1% formic acid
# Procedure, shortened: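 Data were gathered over 3 months by HPLC coupled to a quadrupole time-of-flight mass spectrometer, operated in positive and negative ionization mode. Mixtures of ~100 pure standards ran on a Zorbax Extend-C18 column (2.1 × 50 mm, 1.8 μm) at 100 μL/min, with water and acetonitrile each containing 0.1% formic acid and dead and dwell volumes of 40 μL and 900 μL. Retention time was read from adduct peaks picked by computer and checked manually.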
row,Structure (SMILES),RP-LC retention time
1,COc1ccc(NC(=O)N2CCC3(CC2)NC(=O)c2ccc(Cl)cc2N3C)c(C)c1,787 s
2,Cc1ccc(-c2cc3n(n2)CCCN(C(=O)c2n[nH]c4ccccc24)C3)cc1,850 s
3,CCCn1cc(CCNS(=O)(=O)c2ccc(F)c(Cl)c2)c2cccnc21,931 s
4,O=C(CN1C(=O)NC(c2ccc(Cl)cc2)C2=C1COC2=O)NCc1ccccc1Cl (stereo unspecified),811 s
5,Cc1cc(NC(=O)Cn2c(=O)cc(-c3nc(C(C)C)no3)c3ccccc32)ccc1F,959 s
6,O=C(NC1CCN(Cc2ccccc2)CC1)c1ccc2nc3ccc(Cl)cc3c(=O)n2c1,665 s
7,Cc1ccc(NC(=O)c2cc(C(C)C)n3nccc3n2)c(C)c1,1200 s
8,COc1ccc(C(=O)Nc2nc(-c3ccccc3)cs2)cc1OC,961 s
9,CCCN(CC1CCOC1)C(=O)NCc1ccc(C)cc1 (stereo unspecified),796 s
10,CCCn1c(C)cnc1C1CCN(S(=O)(=O)c2ccc3c(c2)CCC3)C1 (stereo unspecified),564 s
11,Fc1cnccc1CN1CCC(N2CC3(CCCCC3)C2c2ccccc2)CC1 (stereo unspecified),596 s
12,O=c1c2cc(-c3cccs3)nn2cnn1Cc1nc(-c2ccccc2Br)no1,1050 s
13,O=C(O)c1nnn(-c2ccc(F)cc2)c1-c1cccnc1,629 s
14,Cc1ccc(CC(=O)N2CCC3(CC2)N=C(c2ccc(C)cc2)NO3)cc1,874 s
15,Cc1cc(C(=O)Nc2ccccc2Cl)nc2cc(-c3ccco3)nn12,1280 s
16,COc1ccc(CN2C[C@@H]3C(=O)N(Cc4ccc5c(c4)OCO5)C(=O)[C@@H]3C2)cc1,689 s
17,COCCC1(NC(=O)c2ccoc2)CCN(CC2CC2)CC1,581 s
18,CCc1cccc(NC(=O)C2CCCN(S(=O)(=O)c3c[nH]c(C(=O)N4CCCC4)c3)C2)c1 (stereo unspecified),877 s
19,Cn1c(C#N)ccc1-c1ccc2c(c1)C(C)(C)OC(=S)N2,989 s
20,O=C(Cn1c(=O)c2cc(C3CC3)nn2c2ncccc21)NCc1ccc(Cl)cc1,791 s
21,CCc1nc2c(=O)n(CC(=O)N3CCN(c4ccc(Cl)cc4)CC3)nc(C)c2s1,854 s
22,CCn1cc(-c2ccc(OC)cc2)cc1C(=O)N1CCCC1,952 s

row,Structure (SMILES),RP-LC retention time
1,O=C(NCc1ccccn1)C1CCN(C(=O)c2ncn3c2COC(c2ccccc2)C3)CC1 (stereo unspecified),602 s
2,COc1ccc(OC)c(S(=O)(=O)NCC2(C)CCOCC2)c1,686 s
3,COc1nc(-c2ccc3c(c2)OCO3)n(-c2ccc(NC(=O)CSc3ccccc3)cc2)n1,894 s
4,Cc1cc(=O)oc2c3c(cc(OCC(=O)N[C@H](CC(C)C)C(=O)O)c12)OC(C)(C)CC3,892 s
5,O=C(Nc1ccc(Br)cc1)C1CCCN(c2ncc(-c3cccc(F)c3)cn2)C1 (stereo unspecified),1230 s
6,CC1(C(=O)NCc2ccccc2)CN(S(=O)(=O)c2ccccc2)CC(=O)N1C1CCCCC1 (stereo unspecified),992 s
7,Cc1c(NS(=O)(=O)CCOc2ccccc2)c(=O)n(-c2ccccc2)n1C,729 s
8,Cc1ccc(-c2ccc3nnc(CCC(=O)NC4CCC(C)CC4)n3n2)cc1C (stereo unspecified),854 s
9,Cc1cc(C)cc(S(=O)(=O)N2CCC(C(=O)NCc3csc(-c4cccs4)n3)CC2)c1,967 s
10,O=C(C1CC1)N1CCC2(CCCCO2)CC1,668 s
11,COc1ccc(-c2nnc(COc3cccc(NC(=O)c4nn(C)c5ccccc45)c3)o2)cc1,1040 s
12,CC(C)C(=O)N1CCc2cc(-c3ccc(C(=O)NCCCN4CCN(C)CC4)cc3)ccc21,607 s
13,CCc1nc(-c2csc(S(=O)(=O)N3CCCC(C(=O)Nc4ccc(F)c(Cl)c4)C3)c2)no1 (stereo unspecified),1130 s
14,Cc1cccc(-c2nnc3ccc(Cl)nn23)c1,823 s
15,CCCN1C(=O)COc2ccc(-c3csc(NC(=O)C(C)C)n3)cc21,918 s
16,CCC1CN(C(=O)N2CCC(C(=O)NCCN3CCN(C)CC3)CC2)c2cc(C)ccc2O1 (stereo unspecified),619 s
17,COC(=O)c1ccc2c(=O)n(-c3ccc(Cl)cc3)c(N3CCSC3)nc2c1,1110 s
18,O=c1ccc(-c2ccc3c(c2)OCO3)nn1CCc1nc(-c2ccc(F)c(Br)c2)no1,1030 s
19,Cc1ccc(C)c(N2CCN(c3ccnc(SCC(=O)Nc4ccccc4Cl)n3)CC2)c1,1130 s
20,CCc1noc(NC(C)=O)c1-c1ccc(OC)c(S(=O)(=O)Nc2ccc(C(C)C)cc2)c1,891 s
21,COc1cccc(C(=O)NC2CCN(c3cc(C)cc(C)c3)C2=O)c1 (stereo unspecified),876 s
22,O=C(c1cccc2c1CCN2C(=O)c1ccc(F)cc1)N1CCCCC1,854 s

row,Structure (SMILES),RP-LC retention time
1,Cc1ccc(CNC(=O)C2CCN(Cc3cc4ccccc4n3Cc3ccccc3C)CC2)o1,800 s
2,O=C(C1CCC1)N1CCC(c2noc(-c3cnccn3)n2)C1 (stereo unspecified),655 s
3,CCOCCCNC(=O)C1CCN(C2=NS(=O)(=O)C(c3ccc(C)c(C)c3)=C2C)CC1,786 s
4,Cc1nn(-c2nc(-c3ccc(Cl)cc3)cs2)c(C)c1CC(=O)N1CCCCC1,1260 s
5,CCc1nnc(-c2cn(CC(=O)Nc3cc(Cl)c(OC)cc3OC)c3ccccc23)o1,916 s
6,CCOc1ccccc1NC(=O)Cn1nc(C(=O)N2CCCC2)c2ccccc21,917 s
7,O=C(Cc1csc2nc(-c3cccc(Br)c3)cn12)NC1CCCCC1,952 s
8,Cc1ccc2ncn(C3CCN(S(=O)(=O)c4ccc(C)c(F)c4)CC3)c(=O)c2c1,968 s
9,NC(=O)c1cc[nH]c1C1CCCN(C(=O)c2ccc(Cn3cncn3)o2)C1 (stereo unspecified),560 s
10,O=C(O)c1cnc(N2CCCCC2)nc1-c1ccncc1,636 s
11,CCCc1cc(SCc2ccc(C(=O)OC)cc2)ncn1,992 s
12,C=CCN1C(=O)COc2ccc(-c3nc(NC(=O)C(CC)CC)sc3C)cc21,1050 s
13,Cc1ccc(CN2CCc3nc(N4CCN(c5ccccc5F)CC4)ncc3C2)s1,799 s
14,Cc1nc(-c2nc(-c3cccs3)cs2)cn1CC(=O)Nc1cccc(F)c1,814 s
15,Cc1ccc(CNC(=O)Nc2ccc3nncn3c2)cc1,680 s
16,COc1ccccc1NC(=O)C1c2cc(OC)c(OC)cc2C(=O)N2CCc3ccccc3C12 (stereo unspecified),862 s
17,COc1ccc(-c2nc(-c3ccc4oc(C)nc4c3)no2)cc1F,1080 s
18,CNC(=O)c1cc2cc(Cl)ccc2[nH]1,741 s
19,CNCCC(Oc1ccccc1OC)c1ccccc1 (stereo unspecified),734 s
20,CCN1CCN(S(=O)(=O)c2cc(-c3nnc(-c4ccc(OC)c(OC)c4)o3)ccc2C)CC1,1180 s
21,CCOC(=O)c1c(C)[nH]c(C(=O)N2CCC(CC(=O)N(C)Cc3ccco3)CC2)c1C,765 s
22,COc1cccc(-c2noc(C3CCCN3C(=O)Nc3ccc(Br)cc3)n2)c1 (stereo unspecified),964 s
